Assay results published in article PMC6466617 (The AAPS journal, 2019).

Molecular target: T1, monocarboxylate transporter 1 (MCT1) (Mus musculus, UniProt P53986)
T1 sequence (P53986 1-493): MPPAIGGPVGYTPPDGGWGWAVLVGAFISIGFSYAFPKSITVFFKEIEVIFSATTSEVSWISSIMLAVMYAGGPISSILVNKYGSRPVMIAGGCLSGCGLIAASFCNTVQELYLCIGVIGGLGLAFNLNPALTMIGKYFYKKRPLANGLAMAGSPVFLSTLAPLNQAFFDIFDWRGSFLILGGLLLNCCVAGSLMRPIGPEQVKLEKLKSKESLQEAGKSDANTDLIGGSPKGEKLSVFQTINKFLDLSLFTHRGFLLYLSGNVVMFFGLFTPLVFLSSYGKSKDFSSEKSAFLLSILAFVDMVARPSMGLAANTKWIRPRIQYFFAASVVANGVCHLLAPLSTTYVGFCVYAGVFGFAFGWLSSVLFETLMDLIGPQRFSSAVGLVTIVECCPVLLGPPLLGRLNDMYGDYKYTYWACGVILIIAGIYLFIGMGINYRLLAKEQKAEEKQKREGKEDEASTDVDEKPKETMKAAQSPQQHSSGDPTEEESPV
Experiment: inhibition of [3H]-L-lactate uptake in 4T1 cells at […], pH […], with washout
Assay type: cell-based
Conditions: 4T1, read-out: % inhibition at 200 nM

Cc1[nH]nc(C(F)(F)F)c1Cc1sc2c(c1C(=O)N1C[C@](C)(O)CO1)c(=O)n(C)c(=O)n2C(C)C [AZD3965]
inhibition at 0.2 µM: 83.5%
